# Assay results: US20050239656A1, “Pyridine compounds or salts thereof and herbicides containing the same” (priority 2002, published 2005)
# Tests used:
# barnyardgrass [1] = assay: Test Example 1: foliage treatment, upland pot test; format: in vivo, Echinochloa crus-galli L.; conditions: active ingredient 500 g/ha, observed 18th to 23rd day, 0 = non-treated, 100 = complete kill
# How it was run: (§1)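 Foliage tx, upland soil pots; stages: wheat 1.3-2.4 L, rice 1.2-2.6 L, soybean 0.1-0.4 L, barnyardgrass 1.3-2.8 L. WP/EC diluted, 500 L/ha water + 0.1% (v/v) agricultural spreader, small sprayer. Visual rating d18–23, 0–100% control.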
# crabgrass [2] = assay: Test Example 1: foliage treatment, upland pot test; format: in vivo, Digitaria sanguinalis L.; conditions: active ingredient 500 g/ha, observed 18th to 23rd day, 0 = non-treated, 100 = complete kill
# green foxtail [3] = assay: Test Example 1: foliage treatment, upland pot test; format: in vivo, Setaria viridis L.; conditions: active ingredient 500 g/ha, observed 18th to 23rd day, 0 = non-treated, 100 = complete kill
# redroot pigweed [4] = assay: Test Example 1: foliage treatment, upland pot test; format: in vivo, Amaranthus retroflexus L.; conditions: active ingredient 500 g/ha, observed 18th to 23rd day, 0 = non-treated, 100 = complete kill
# prickly sida [5] = assay: Test Example 1: foliage treatment, upland pot test; format: in vivo, Sida spinosa L.; conditions: active ingredient 500 g/ha, observed 18th to 23rd day, 0 = non-treated, 100 = complete kill
# velvetleaf [6] = assay: Test Example 1: foliage treatment, upland pot test; format: in vivo, Abutilon theophrasti MEDIC.; conditions: active ingredient 500 g/ha, observed 18th to 23rd day, 0 = non-treated, 100 = complete kill
# rice [7] = assay: Test Example 1: foliage treatment, upland pot test; format: in vivo, Oryza sativa L.; conditions: crop, active ingredient 500 g/ha, observed 18th to 23rd day, 0 = non-treated, 100 = complete kill
# How it was run: as §1
# wheat [8] = assay: Test Example 1: foliage treatment, upland pot test; format: in vivo, Triticum spp.; conditions: crop, active ingredient 500 g/ha, observed 18th to 23rd day, 0 = non-treated, 100 = complete kill
# Description: Upland field soil was put into a 1/170,000 ha pot, and seed of various plants were sown. Then, when the plants reached predetermined leaf stages ((1) barnyardgrass: 1.3 to 2.8 leaf stages, (2) crabgrass: 1.0 to 2.8 leaf stages, (3) green foxtail: 1.3 to 2.6 leaf stages, (4) redroot pigweed: 0.1 to 1.2 leaf stages, (5) prickly sida: 0.1 to 1.2 leaf stages, (6) velvetleaf: 0.1 to 1.2 leaf stages, (7) tall morningglory: 0.1 to 1.5 leaf stages, (8) rice: 1.2 to 2.6 leaf stages, (9) wheat: 1.3 to 2.4 leaf stages, (10) corn, 2.1 to 3.2 leaf stages, (11) soybean: 0.1 to 0.4 leaf stage), a wettable powder or emulsifiable concentrate having the compound of the present invention formulated in accordance with a usual formulation method, was weighed so that the active ingredient would be a predetermined amount, and diluted with water in an amount of 500 L/ha. To the diluted solution, 0.1% (v/v) of agricultural spreader was added. The herbicide thus adjusted was applied by a small size sprayer for foliage treatment. On the 18th to 23rd days after the application of the herbicide, the growth of the respective plants was visually observed, and the herbicidal effects were evaluated by the growth controlling degrees (%) ranging from 0 (equivalent to the non-treated plot) to 100 (complete kill), whereby the results shown in Table 3, were obtained.
# corn [9] = assay: Test Example 1: foliage treatment, upland pot test; format: in vivo, Zea mays L.; conditions: crop, active ingredient 500 g/ha, observed 18th to 23rd day, 0 = non-treated, 100 = complete kill
# How it was run: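 In this upland pot foliage test, corn plants at 2.1 to 3.2 leaf stages were sprayed by a small size sprayer. The spray was a conventionally formulated wettable powder or emulsifiable concentrate weighed to a set active ingredient amount, diluted in water at 500 L/ha, plus 0.1% (v/v) agricultural spreader. Visual assessment on days 18 to 23 gave growth controlling degree (%), where 0 equals untreated and 100 means complete kill.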
# soybean [10] = assay: Test Example 1: foliage treatment, upland pot test; format: in vivo, Glycine max Merr.; conditions: crop, active ingredient 500 g/ha, observed 18th to 23rd day, 0 = non-treated, 100 = complete kill
# How it was run: as §1
# barnyardgrass [11] = assay: Test Example 2: soil surface treatment, upland pot test; format: in vivo, Echinochloa crus-galli L.; conditions: active ingredient 500 g/ha, observed 20th to 28th day
# How it was run: (§2)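 Sowing, then next-day soil-surface spray of formulated test compound (fixed a.i. amount, 1,500 L/ha spray volume); visual evaluation of growth inhibition, 0–100%, three to four weeks (days 20–28) after application.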
# crabgrass [12] = assay: as above; format: in vivo, Digitaria sanguinalis L.; conditions: active ingredient 500 g/ha, observed 20th to 28th day
# How it was run: as §2
# green foxtail [13] = assay: as above; format: in vivo, Setaria viridis L.; conditions: active ingredient 500 g/ha, observed 20th to 28th day
# How it was run: as §2
# redroot pigweed [14] = assay: as above; format: in vivo, Amaranthus retroflexus L.; conditions: active ingredient 500 g/ha, observed 20th to 28th day
# How it was run: as §2
# prickly sida [15] = assay: as above; format: in vivo, Sida spinosa L.; conditions: active ingredient 500 g/ha, observed 20th to 28th day
# How it was run: as §2
# velvetleaf [16] = assay: as above; format: in vivo, Abutilon theophrasti MEDIC.; conditions: active ingredient 500 g/ha, observed 20th to 28th day
# How it was run: as §2
# rice [17] = assay: as above; format: in vivo, Oryza sativa L.; conditions: active ingredient 500 g/ha, observed 20th to 28th day
# How it was run: as §2
# wheat [18] = assay: as above; format: in vivo, Triticum spp.; conditions: active ingredient 500 g/ha, observed 20th to 28th day
# How it was run: as §2
# corn [19] = assay: as above; format: in vivo, Zea mays L.; conditions: active ingredient 500 g/ha, observed 20th to 28th day
# How it was run: as §2
# soybean [20] = assay: as above; format: in vivo, Glycine max Merr.; conditions: active ingredient 500 g/ha, observed 20th to 28th day
# How it was run: as §2
# barnyardgrass [21] = assay: Test Example 3: paddy pot test, application under submerged conditions; format: in vivo, Echinochloa crus-galli L.; conditions: active ingredient 250 g/ha; submerged application at 0.5 leaf stage; visually observed 14 days after application; 0 = non-treated, 100 = complete kill
# How it was run: (§3)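 Visual rating of growth control (0% equals untreated, 100% complete kill) made 14 days after treatment. Compound, formulated as wettable powder or emulsifiable concentrate and diluted in water, was pipetted under submerged conditions at predetermined active-ingredient doses once weeds reached 0.5-leaf (barnyardgrass, bulrush) or primary-leaf (wapato, from tubers) stage. Pots of greenhouse paddy soil held 3–4 cm flooding.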
# japanese bulrush = assay: as above; format: in vivo, Scirpus juncoides; conditions: active ingredient 250 g/ha; submerged application at 0.5 leaf stage; visually observed 14 days after application; 0 = non-treated, 100 = complete kill
# How it was run: as §3
# rice (var. Nihonbare) = assay: Test Example 3: paddy pot test, transplanted rice; format: in vivo, Oryza sativa L.; conditions: active ingredient 250 g/ha, applied 4th day after transplantation, visually observed 21st day after application, 0 = non-treated, 100 = complete kill
# How it was run: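 Visual crop-injury rating (0 = as untreated, 100 = complete kill, %) taken 21 days post-application. Treatment: formulated compound, water-diluted, pipetted into 3–4 cm flood water at a preset active-ingredient dose, 4 days after transplanting 2-leaf Nihonbare rice 3 cm deep in puddled paddy soil.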
Compound,Growth controlling degree (%) Barnyardgrass (barnyardgrass [1]) [%],Growth controlling degree (%) Crabgrass (crabgrass [2]) [%],Growth controlling degree (%) Green foxtail (green foxtail [3]) [%],Growth controlling degree (%) Redroot pigweed (redroot pigweed [4]) [%],Growth controlling degree (%) Prickly sida (prickly sida [5]) [%],Growth controlling degree (%) Velvetleaf (velvetleaf [6]) [%],Growth controlling degree (%) Rice (rice [7]) [%],Growth controlling degree (%) wheat (wheat [8]) [%],Growth controlling degree (%) Corn (corn [9]) [%],Growth controlling degree (%) Soybean (soybean [10]) [%],Growth controlling degree (%) Barnyardgrass (barnyardgrass [11]) [%],Growth controlling degree (%) Crabgrass (crabgrass [12]) [%],Growth controlling degree (%) Green foxtail (green foxtail [13]) [%],Growth controlling degree (%) Redroot pigweed (redroot pigweed [14]) [%],Growth controlling degree (%) Prickly sida (prickly sida [15]) [%],Growth controlling degree (%) Velvetleaf (velvetleaf [16]) [%],Growth controlling degree (%) Rice (rice [17]) [%],Growth controlling degree (%) wheat (wheat [18]) [%],Growth controlling degree (%) Corn (corn [19]) [%],Growth controlling degree (%) Soyabean (soybean [20]) [%],further results
Cc1ccc(OC(C)C(=O)N(C)C(c2cnccc2C(F)(F)F)C(C)C)cc1 (mixture of isomers) [I-131],70,80,70,70,70,50,30,50,50,80,100,100,100,30,60,0,20,20,10,40,Growth controlling degree (%) Barnyardgrass (barnyardgrass [21]): 100%; Growth controlling degree (%) Japanese bulrush (japanese bulrush): 95%; Growth controlling degree (%) Rice (rice (var. Nihonbare)): 10%
CC(Oc1ccc(F)cc1)C(=O)N(C)C(c1cnccc1C(F)(F)F)C(C)C (mixture of isomers) [I-133],70,70,70,70,80,70,40,40,80,80,100,98,100,50,80,50,70,40,50,30,Growth controlling degree (%) Barnyardgrass (barnyardgrass [21]): 100%; Growth controlling degree (%) Japanese bulrush (japanese bulrush): 95%; Growth controlling degree (%) Rice (rice (var. Nihonbare)): 10%
CC(C)C(c1cnccc1C(F)(F)F)N(C)S(=O)(=O)c1ccc(F)cc1 (racemic) [I-124],80,95,70,50,80,70,40,60,60,80,100,100,100,60,90,80,20,10,20,30,Growth controlling degree (%) Barnyardgrass (barnyardgrass [21]): 100%; Growth controlling degree (%) Japanese bulrush (japanese bulrush): 70%; Growth controlling degree (%) Rice (rice (var. Nihonbare)): 0%
CC(C)C(c1cnccc1C(F)(F)F)N(C)S(=O)(=O)c1ccc(Cl)cc1 (racemic) [I-125],70,95,70,60,80,70,40,10,60,80,100,100,100,50,80,70,30,20,10,10,Growth controlling degree (%) Barnyardgrass (barnyardgrass [21]): 100%; Growth controlling degree (%) Japanese bulrush (japanese bulrush): 70%; Growth controlling degree (%) Rice (rice (var. Nihonbare)): 10%
CC(C)C(c1cnccc1C(F)(F)F)N(C)S(=O)(=O)c1ccc(F)cc1F (racemic) [I-127],70,95,50,20,70,60,30,0,40,60,100,90,100,60,50,40,20,30,10,10,Growth controlling degree (%) Barnyardgrass (barnyardgrass [21]): 100%; Growth controlling degree (%) Japanese bulrush (japanese bulrush): 70%; Growth controlling degree (%) Rice (rice (var. Nihonbare)): 0%
